Assay results reported in patent US10934296B2, “4-imidazopyridazin-1-yl-benzamides as Btk inhibitors” (Merck Sharp & Dohme B.V., priority 2011, dated 2021).

Molecular target: Btk enzyme (His-Btk) (Homo sapiens (Human), UniProt Q06187)
Experiment: Btk enzyme activity, IMAP fluorescence polarization assay
Settings: 60 min pre-incubation, 5 μM ATP, bin bounds in nM

Chain of Btk enzyme (His-Btk) (Q06187 whole entry): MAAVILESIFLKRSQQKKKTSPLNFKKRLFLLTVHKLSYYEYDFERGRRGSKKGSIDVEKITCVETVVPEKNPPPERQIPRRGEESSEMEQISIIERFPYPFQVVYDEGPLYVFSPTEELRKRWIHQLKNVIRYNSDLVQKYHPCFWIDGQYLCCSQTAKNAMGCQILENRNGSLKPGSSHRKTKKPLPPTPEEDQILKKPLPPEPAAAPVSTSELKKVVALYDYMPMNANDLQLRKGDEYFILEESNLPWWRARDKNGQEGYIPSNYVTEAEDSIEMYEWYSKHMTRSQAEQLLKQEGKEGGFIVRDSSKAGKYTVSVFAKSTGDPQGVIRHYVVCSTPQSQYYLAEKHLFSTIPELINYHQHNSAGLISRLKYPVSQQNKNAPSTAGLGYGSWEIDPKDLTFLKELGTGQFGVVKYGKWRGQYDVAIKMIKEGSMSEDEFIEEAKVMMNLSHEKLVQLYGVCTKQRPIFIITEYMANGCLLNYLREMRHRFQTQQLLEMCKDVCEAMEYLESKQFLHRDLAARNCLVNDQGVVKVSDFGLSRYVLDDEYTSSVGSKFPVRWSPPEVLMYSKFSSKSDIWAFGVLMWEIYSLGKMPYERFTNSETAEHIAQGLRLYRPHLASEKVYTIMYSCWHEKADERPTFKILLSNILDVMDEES

Structure (SMILES)	EC50 Btk activity values [nM]
CCc1ccnc(NC(=O)c2ccc(-c3nc([C@@H]4CCCN4C(=O)/C=C/COC)n4ccnc(N)c34)cc2)c1 [Example 11, (S,E)-4-(8-Amino-3-(1-(4-methoxybut-2-enoyl)pyrrolidin-2-yl)-imidazo[1,5-a]pyrazin-1-yl)-N-(4-ethylpyridin-2-yl)benzamide]	<100
CC#CC(=O)N1CCCC[C@H]1c1nc(-c2ccc(C(=O)Nc3ccon3)cc2)c2c(N)nccn12 [Example 24, (S)-4-(8-Amino-3-(1-but-2-ynoylpiperidin-2-yl)imidazo[1,5-a]pyrazin-1-yl)-N-(isoxazol-3-yl)benzamide]	<100
CN(C)CC#CC(=O)N1CCC[C@H]1c1nc(-c2ccc(C(=O)Nc3ccccn3)cc2)c2c(N)nccn12 [Example 40, (S)-4-(8-Amino-3-(1-(4-(dimethylamino)but-2-ynoyl)pyrrolidin-2-yl)imidazo[1,5-a]pyrazin-1-yl)-N-(pyridin-2-yl)benzamide]	<100
CC#CC(=O)N1CCC[C@H]1c1nc(-c2ccc(C(=O)Nc3ccccn3)c(F)c2)c2c(N)nccn12 [Example 50, (S)-4-(8-amino-3-(1-but-2-ynoylpyrrolidin-2-yl)imidazo[1,5-a]pyrazin-1-yl)-2-fluoro-N-(pyridin-2-yl)benzamide]	<100
COC/C=C/C(=O)N1CCC[C@H]1c1nc(-c2ccc(C(=O)Nc3cc(OC)ccn3)cc2)c2c(N)nccn12 [Example 51, (S,E)-4-(8-amino-3-(1-(4-methoxybut-2-enoyl)pyrrolidin-2-yl)imidazo[1,5-a]pyrazin-1-yl)-N-(4-methoxypyridin-2-yl)benzamide]	<100
COC/C=C/C(=O)N1CCC[C@H]1c1nc(-c2ccc(C(=O)Nc3cc(C)ccn3)cc2)c2c(N)nccn12 [Example 57, (S,E)-4-(8-amino-3-(1-(4-methoxybut-2-enoyl)pyrrolidin-2-yl)imidazo[1,5-a]pyrazin-1-yl)-N-(4-methylpyridin-2-yl)benzamide]	<100
CN(C)C/C=C/C(=O)NCc1nc(-c2ccc(C(=O)Nc3ccccn3)cc2)c2c(N)nccn12 [Example 69, (E)-4-(8-amino-3-((4-(dimethylamino)but-2-enamido)methyl)imidazo[1,5-a]pyrazin-1-yl)-N-(pyridin-2-yl)benzamide]	<100
CC(C)c1ccnc(NC(=O)c2ccc(-c3nc([C@@H]4CCCN4C(=O)c4ccnc(Cl)n4)n4ccnc(N)c34)cc2)c1 [Example 70, (S)-4-(8-amino-3-(1-(2-chloropyrimidine-4-carbonyl)pyrrolidin-2-yl)imidazo[1,5-a]pyrazin-1-yl)-N-(4-isopropylpyridin-2-yl)benzamide]	<100
COC/C=C/C(=O)N1CCCC[C@H]1c1nc(-c2ccc(C(=O)Nc3cc(F)ccn3)cc2)c2c(N)nccn12 [Example 81, (S,E)-4-(8-amino-3-(1-(4-methoxybut-2-enoyl)piperidin-2-yl)imidazo[1,5-a]pyrazin-1-yl)-N-(4-fluoropyridin-2-yl)benzamide]	<100
COC/C=C/C(=O)N1CCC[C@H]1c1nc(-c2ccc(C(=O)Nc3nc4c(s3)CCCC4)cc2)c2c(N)nccn12 [Example 82, (S,E)-4-(8-amino-3-(1-(4-methoxybut-2-enoyl)pyrrolidin-2-yl)imidazo[1,5-a]pyrazin-1-yl)-N-(4,5,6,7-tetrahydrobenzo[d]thiazol-2-yl)benzamide]	<100

The next lines start with the values.

EC50 Btk activity values [nM]	Structure (SMILES)
<100	Nc1nccn2c([C@@H]3CCCN3C(=O)/C=C/CN3CCCC3)nc(-c3ccc(C(=O)Nc4ccccn4)cc3)c12 [Example 2, (S,E)-4-(8-amino-3-(1-(4-(pyrrolidin-1-yl)but-2-enoyl)pyrrolidin-2-yl)imidazo[1,5-a]pyrazin-1-yl)-N-(pyridin-2-yl)benzamide]
<100	COC/C=C/C(=O)N1CCC[C@H]1c1nc(-c2ccc(C(=O)Nc3ccccn3)cc2)c2c(N)nccn12 [Example 4, (S,E)-4-(8-amino-3-(1-(4-methoxybut-2-enoyl)pyrrolidin-2-yl)imidazo[1,5-a]pyrazin-1-yl)-N-(pyridin-2-yl)benzamide]
<100	Nc1nccn2c([C@@H]3CCCN3C(=O)c3ccnc(Cl)n3)nc(-c3ccc(C(=O)Nc4ccccn4)cc3)c12 [Example 5, (S)-4-(8-amino-3-(1-(2-chloropyrimidine-4-carbonyl)pyrrolidin-2-yl)imidazo[1,5-a]pyrazin-1-yl)-N-(pyridin-2-yl)benzamide]
<100	CN(C)C/C=C/C(=O)N1CCC[C@H]1c1nc(-c2ccc(C(=O)Nc3cc(F)ccn3)cc2)c2c(N)nccn12 [Example 7, (S,E)-4-(8-Amino-3-(1-(4-(dimethylamino)but-2-enoyl)pyrrolidin-2-yl)imidazo[1,5-a]pyrazin-1-yl)-N-(4-fluoropyridin-2-yl)benzamide]
<100	COCC#CC(=O)N1CCC[C@H]1c1nc(-c2ccc(C(=O)Nc3ccccn3)cc2)c2c(N)nccn12 [Example 41, (S)-4-(8-Amino-3-(1-(4-methoxybut-2-ynoyl)pyrrolidin-2-yl)imidazo[1,5-a]pyrazin-1-yl)-N-(pyridin-2-yl)benzamide]
<100	Cc1cc(C(=O)Nc2ccccn2)ccc1-c1nc([C@@H]2CCCCN2C(=O)c2ccnc(Cl)n2)n2ccnc(N)c12 [Example 56, 4-(8-amino-3-((S)-1-(2-chloropyrimidine-4-carbonyl)piperidin-2-yl)imidazo[1,5-a]pyrazin-1-yl)-3-methyl-N-(pyridin-2-yl)benzamide]
<100	COC/C=C/C(=O)N1CCC[C@H]1c1nc(-c2ccc(C(=O)Nc3cc(C(C)C)ccn3)cc2)c2c(N)nccn12 [Example 58, (S,E)-4-(8-amino-3-(1-(4-methoxybut-2-enoyl)pyrrolidin-2-yl)imidazo[1,5-a]pyrazin-1-yl)-N-(4-isopropylpyridin-2-yl)benzamide]
<100	Cc1ccnc(NC(=O)c2ccc(-c3nc([C@@H]4CCCN4C(=O)/C=C/CN(C)C)n4ccnc(N)c34)cc2)c1 [Example 59, (S,E)-4-(8-amino-3-(1-(4-(dimethylamino)but-2-enoyl)pyrrolidin-2-yl)imidazo[1,5-a]pyrazin-1-yl)-N-(4-methylpyridin-2-yl)benzamide]
<100	Nc1nccn2c([C@@H]3CCCN3C(=O)c3ccnc(Cl)n3)nc(-c3ccc(C(=O)Nc4nc5c(s4)CCCC5)cc3)c12 [Example 71, (S)-4-(8-amino-3-(1-(2-chloropyrimidine-4-carbonyl)pyrrolidin-2-yl)imidazo[1,5-a]pyrazin-1-yl)-N-(4,5,6,7-tetrahydrobenzo[d]thiazol-2-yl)benzamide]
<100	CN(C)C/C=C/C(=O)N1CCCC[C@H]1c1nc(-c2ccc(C(=O)Nc3cccnn3)cc2)c2c(N)nccn12 [Example 73, (S,E)-4-(8-amino-3-(1-(4-(dimethylamino)but-2-enoyl)piperidin-2-yl)imidazo[1,5-a]pyrazin-1-yl)-N-(pyridazin-3-yl)benzamide]
<100	Nc1nccn2c([C@@H]3CCCCN3C(=O)c3ccnc(Cl)n3)nc(-c3ccc(C(=O)Nc4cc(F)ccn4)cc3)c12 [Example 80, (S)-4-(8-amino-3-(1-(2-chloropyrimidine-4-carbonyl)piperidin-2-yl)imidazo[1,5-a]pyrazin-1-yl)-N-(4-fluoropyridin-2-yl)benzamide]
<100	COc1cc(-c2nc([C@@H]3CCCN3C(=O)c3ccnc(Cl)n3)n3ccnc(N)c23)ccc1C(=O)Nc1ccccn1 [Example 83, (S)-4-(8-amino-3-(1-(2-chloropyrimidine-4-carbonyl)pyrrolidin-2-yl)imidazo[1,5-a]pyrazin-1-yl)-2-methoxy-N-(pyridin-2-yl)benzamide]

Same assay, conditions: 60 min pre-incubation, 5 μM ATP, bin bounds in μM

Structure (SMILES)	EC50 Btk activity values [nM]
COC/C=C/C(=O)N1CCC[C@H]1c1nc(-c2ccc(C(=O)Nc3ccccn3)c(F)c2)c2c(N)nccn12 [Example 52]	<1000
COC/C=C/C(=O)N1CCCC[C@H]1c1nc(-c2ccc(C(=O)Nc3ccon3)cc2)c2c(N)nccn12 [Example 54, (S,E)-4-(8-amino-3-(1-(4-methoxybut-2-enoyl)piperidin-2-yl)imidazo[1,5-a]pyrazin-1-yl)-N-(isoxazol-3-yl)benzamide]	<1000
COC/C=C/C(=O)N1CCCC[C@H]1c1nc(-c2ccc(C(=O)Nc3ncccn3)cc2)c2c(N)nccn12 [Example 55, (S,E)-4-(8-amino-3-(1-(4-methoxybut-2-enoyl)piperidin-2-yl)imidazo[1,5-a]pyrazin-1-yl)-N-(pyrimidin-2-yl)benzamide]	<1000
C=CC(=O)N1CCCC[C@H]1c1nc(-c2ccc(C(=O)Nc3ccccn3)cc2C)c2c(N)nccn12 [Example 68, 4-(3-((S)-1-acryloylpiperidin-2-yl)-8-aminoimidazo[1,5-a]pyrazin-1-yl)-3-methyl-N-(pyridin-2-yl)benzamide]	<1000
Nc1nccn2c([C@@H]3CCCCN3C(=O)c3ccnc(Cl)n3)nc(-c3ccc(C(=O)Nc4cccnn4)cc3)c12 [Example 74, (S)-4-(8-amino-3-(1-(2-chloropyrimidine-4-carbonyl)piperidin-2-yl)imidazo[1,5-a]pyrazin-1-yl)-N-(pyridazin-3-yl)benzamide]	<1000

Next, values leading:

EC50 Btk activity values [nM]	Structure (SMILES)
<1000	COC/C=C/C(=O)N1CCC[C@H]1c1nc(-c2ccc(C(=O)Nc3cc(F)ccn3)cc2)c2c(N)nccn12 [Example 53, (S,E)-4-(8-amino-3-(1-(4-methoxybut-2-enoyl)pyrrolidin-2-yl)imidazo[1,5-a]pyrazin-1-yl)-N-(4-fluoropyridin-2-yl)benzamide]
<1000	COC/C=C/C(=O)N1CCCC[C@H]1c1nc(-c2ccc(C(=O)Nc3cccnn3)cc2)c2c(N)nccn12 [Example 72, (S,E)-4-(8-amino-3-(1-(4-methoxybut-2-enoyl)piperidin-2-yl)imidazo[1,5-a]pyrazin-1-yl)-N-(pyridazin-3-yl)benzamide]
